Data on seven compounds can be found in ChEMBL document CHEMBL2396590, “Inhibition of HIV-1 integrase dimerization and activity with crosslinked interfacial peptides” (Bioorg Med Chem, 2013).

Active and inactive are the calls of the source. The rule behind the calls is not given here. Starred links: 1 amine or outer side, 2 acyl side, 3 side chain; linkers in the order of their positions; H or OH if unused. Non-standard residues stand in square brackets, D forms with d. Residues, ends and D or L forms follow the SMILES beside them. NH(CH2)9CO = O=C(CCCCCCCCCN[*:1])[*:2]; X1 = O=C(CN1CCN([*:1])CC1)[*:2]; X3 = O=C(CC1CCN([*:1])CC1)[*:2]; Aun = NCCCCCCCCCCC(=O)O; AEEA = NCCOCCOCC(=O)O; Aoc = NCCCCCCCC(=O)O; Ahx = NCCCCCC(=O)O

Assay [1] deals with Human immunodeficiency virus type 1 integrase (Human immunodeficiency virus 1), Q7ZJM1 [F185K,C280S]. The experiment in a line: Inhibition of HIV1 integrase F185K/C280S double mutant dimerization expressed in Escherichia coli BL21 (DE3) at 100 fold excess compound concentration after 1 hr by PAGE analysis.
Assay [2] has the same test system. Put plainly: Inhibition of HIV1 integrase F185K/C280S double mutant dimerization expressed in Escherichia coli BL21 (DE3) at 110 uM after 1 hr by PAGE analysis.
Assay [3] deals with Human immunodeficiency virus type 1 integrase (Human immunodeficiency virus 1, UniProt Q7ZJM1, C280S/F185K). The experiment in a line: Inhibition of HIV1 3'-processing activity of integrase F185K/C280S double mutant expressed in Escherichia coli BL21 (DE3).

By IC50 is commonly meant the concentration needed to halve the response being measured. High values mean lower potency, low ones higher potency. Take `CC[C@H](C)[C@H](NC(=O)[C@H](CC(=O)O)NC(=O)[C@@H](NC(=O)[C@H](C)NC(=O)[C@@H](NC(=O)[C@@H](NC(=O)[C@H](CC(=O)O)NC(=O)[C@@H](NC(=O)[C@@H](NC(=O)[C@H](CCCNC(=N)N)NC(=O)[C@H](CCC(=O)O)NC(=O)CNC(=O)[C@H](C)NC(=O)CCCCCNC(=O)[C@H](CCCNC(=N)N)NC(=O)[C@H](CCCCN)NC(=O)[C@H](Cc1ccccc1)NC(=O)[C@H](CC(N)=O)NC(=O)[C@H](Cc1cnc[nH]1)NC(=O)[C@@H](NC(=O)[C@H](Cc1ccccc1)NC(=O)[C@@H](NC(=O)[C@H](C)NC(=O)[C@H](CCSC)NC(=O)[C@H](CCC(N)=O)NC(=O)[C@@H](NC(=O)[C@H](C)NC(=O)[C@@H](NC(=O)[C@H](CCCCN)NC(=O)[C@H](CC(C)C)NC(=O)[C@@H](N)Cc1cnc[nH]1)[C@@H](C)O)C(C)C)C(C)C)[C@@H](C)CC)[C@@H](C)CC)C(C)C)[C@@H](C)CC)[C@@H](C)CC)[C@@H](C)O)C(=O)N[C@@H](CCC(N)=O)C(N)=O` (H-HLKTAVQMAVFIHNFKR[Ahx]AGERIVDIIATDIQ-NH2): the inhibition entry in assay [1] and in assay [2] was “inactive” in each case. In assay [3], this compound yielded a half-maximal inhibitory concentration (IC50) of 1.5 µM.

Turning to `CC[C@H](C)[C@H](NC(=O)[C@H](CC(=O)O)NC(=O)[C@@H](NC(=O)[C@H](C)NC(=O)[C@@H](NC(=O)[C@@H](NC(=O)[C@H](CC(=O)O)NC(=O)[C@@H](NC(=O)[C@@H](NC(=O)[C@H](CCCNC(=N)N)NC(=O)[C@H](CCC(=O)O)NC(=O)CNC(=O)[C@H](C)NC(=O)CCCCCCCNC(=O)[C@H](CCCNC(=N)N)NC(=O)[C@H](CCCCN)NC(=O)[C@H](Cc1ccccc1)NC(=O)[C@H](CC(N)=O)NC(=O)[C@H](Cc1cnc[nH]1)NC(=O)[C@@H](NC(=O)[C@H](Cc1ccccc1)NC(=O)[C@@H](NC(=O)[C@H](C)NC(=O)[C@H](CCSC)NC(=O)[C@H](CCC(N)=O)NC(=O)[C@@H](NC(=O)[C@H](C)NC(=O)[C@@H](NC(=O)[C@H](CCCCN)NC(=O)[C@H](CC(C)C)NC(=O)[C@@H](N)Cc1cnc[nH]1)[C@@H](C)O)C(C)C)C(C)C)[C@@H](C)CC)[C@@H](C)CC)C(C)C)[C@@H](C)CC)[C@@H](C)CC)[C@@H](C)O)C(=O)N[C@@H](CCC(N)=O)C(N)=O` (H-HLKTAVQMAVFIHNFKR[Aoc]AGERIVDIIATDIQ-NH2), the inhibition result in assay [2] was “Active”. The compound further displayed an IC50 in assay [3] of 0.68 µM.

On to `CC[C@H](C)[C@H](NC(=O)[C@H](CC(=O)O)NC(=O)[C@@H](NC(=O)[C@H](C)NC(=O)[C@@H](NC(=O)[C@@H](NC(=O)[C@H](CC(=O)O)NC(=O)[C@@H](NC(=O)[C@@H](NC(=O)[C@H](CCCNC(=N)N)NC(=O)[C@H](CCC(=O)O)NC(=O)CNC(=O)[C@H](C)NC(=O)CCCCCCCCCCNC(=O)[C@H](CCCNC(=N)N)NC(=O)[C@H](CCCCN)NC(=O)[C@H](Cc1ccccc1)NC(=O)[C@H](CC(N)=O)NC(=O)[C@H](Cc1cnc[nH]1)NC(=O)[C@@H](NC(=O)[C@H](Cc1ccccc1)NC(=O)[C@@H](NC(=O)[C@H](C)NC(=O)[C@H](CCSC)NC(=O)[C@H](CCC(N)=O)NC(=O)[C@@H](NC(=O)[C@H](C)NC(=O)[C@@H](NC(=O)[C@H](CCCCN)NC(=O)[C@H](CC(C)C)NC(=O)[C@@H](N)Cc1cnc[nH]1)[C@@H](C)O)C(C)C)C(C)C)[C@@H](C)CC)[C@@H](C)CC)C(C)C)[C@@H](C)CC)[C@@H](C)CC)[C@@H](C)O)C(=O)N[C@@H](CCC(N)=O)C(N)=O` (H-HLKTAVQMAVFIHNFKR[Aun]AGERIVDIIATDIQ-NH2), for which the inhibition entry in assay [2] is “Active”. This compound showed a half-inhibitory concentration (IC50) in assay [3] of 0.85 µM.

As to `CC[C@H](C)[C@H](NC(=O)[C@H](CC(=O)O)NC(=O)[C@@H](NC(=O)[C@H](C)NC(=O)[C@@H](NC(=O)[C@@H](NC(=O)[C@H](CC(=O)O)NC(=O)[C@@H](NC(=O)[C@@H](NC(=O)[C@H](CCCNC(=N)N)NC(=O)[C@H](CCC(=O)O)NC(=O)CNC(=O)[C@H](C)NC(=O)CN1CCN(C(=O)[C@H](CCCNC(=N)N)NC(=O)[C@H](CCCCN)NC(=O)[C@H](Cc2ccccc2)NC(=O)[C@H](CC(N)=O)NC(=O)[C@H](Cc2cnc[nH]2)NC(=O)[C@@H](NC(=O)[C@H](Cc2ccccc2)NC(=O)[C@@H](NC(=O)[C@H](C)NC(=O)[C@H](CCSC)NC(=O)[C@H](CCC(N)=O)NC(=O)[C@@H](NC(=O)[C@H](C)NC(=O)[C@@H](NC(=O)[C@H](CCCCN)NC(=O)[C@H](CC(C)C)NC(=O)[C@@H](N)Cc2cnc[nH]2)[C@@H](C)O)C(C)C)C(C)C)[C@@H](C)CC)CC1)[C@@H](C)CC)C(C)C)[C@@H](C)CC)[C@@H](C)CC)[C@@H](C)O)C(=O)N[C@@H](CCC(N)=O)C(N)=O` (H-HLKTAVQMAVFIHNFKR[X1]AGERIVDIIATDIQ-NH2), the inhibition entry in assay [2] was “Active”. In assay [3], this compound gave an IC50 of 0.46 µM.

For the compound `CC[C@H](C)[C@H](NC(=O)[C@H](CC(=O)O)NC(=O)[C@@H](NC(=O)[C@H](C)NC(=O)[C@@H](NC(=O)[C@@H](NC(=O)[C@H](CC(=O)O)NC(=O)[C@@H](NC(=O)[C@@H](NC(=O)[C@H](CCCNC(=N)N)NC(=O)[C@H](CCC(=O)O)NC(=O)CNC(=O)[C@H](C)NC(=O)COCCOCCNC(=O)[C@H](CCCNC(=N)N)NC(=O)[C@H](CCCCN)NC(=O)[C@H](Cc1ccccc1)NC(=O)[C@H](CC(N)=O)NC(=O)[C@H](Cc1cnc[nH]1)NC(=O)[C@@H](NC(=O)[C@H](Cc1ccccc1)NC(=O)[C@@H](NC(=O)[C@H](C)NC(=O)[C@H](CCSC)NC(=O)[C@H](CCC(N)=O)NC(=O)[C@@H](NC(=O)[C@H](C)NC(=O)[C@@H](NC(=O)[C@H](CCCCN)NC(=O)[C@H](CC(C)C)NC(=O)[C@@H](N)Cc1cnc[nH]1)[C@@H](C)O)C(C)C)C(C)C)[C@@H](C)CC)[C@@H](C)CC)C(C)C)[C@@H](C)CC)[C@@H](C)CC)[C@@H](C)O)C(=O)N[C@@H](CCC(N)=O)C(N)=O` (H-HLKTAVQMAVFIHNFKR[AEEA]AGERIVDIIATDIQ-NH2), in assay [2], the inhibition result was “Active”. In assay [3], this compound registered an IC50 of 1.07 µM.

With `CC[C@H](C)[C@H](NC(=O)[C@H](CC(=O)O)NC(=O)[C@@H](NC(=O)[C@H](C)NC(=O)[C@@H](NC(=O)[C@@H](NC(=O)[C@H](CC(=O)O)NC(=O)[C@@H](NC(=O)[C@@H](NC(=O)[C@H](CCCNC(=N)N)NC(=O)[C@H](CCC(=O)O)NC(=O)CNC(=O)[C@H](C)NC(=O)CCCCCCCCCNC(=O)[C@H](CCCNC(=N)N)NC(=O)[C@H](CCCCN)NC(=O)[C@H](Cc1ccccc1)NC(=O)[C@H](CC(N)=O)NC(=O)[C@H](Cc1cnc[nH]1)NC(=O)[C@@H](NC(=O)[C@H](Cc1ccccc1)NC(=O)[C@@H](NC(=O)[C@H](C)NC(=O)[C@H](CCSC)NC(=O)[C@H](CCC(N)=O)NC(=O)[C@@H](NC(=O)[C@H](C)NC(=O)[C@@H](NC(=O)[C@H](CCCCN)NC(=O)[C@H](CC(C)C)NC(=O)[C@@H](N)Cc1cnc[nH]1)[C@@H](C)O)C(C)C)C(C)C)[C@@H](C)CC)[C@@H](C)CC)C(C)C)[C@@H](C)CC)[C@@H](C)CC)[C@@H](C)O)C(=O)N[C@@H](CCC(N)=O)C(N)=O` (H-HLKTAVQMAVFIHNFKR[NH(CH2)9CO]AGERIVDIIATDIQ-NH2), the inhibition result in assay [2] was “Active”. The half-inhibitory concentration (IC50) in assay [3] was determined as 0.76 µM.

As to `CC[C@H](C)[C@H](NC(=O)[C@H](CC(=O)O)NC(=O)[C@@H](NC(=O)[C@H](C)NC(=O)[C@@H](NC(=O)[C@@H](NC(=O)[C@H](CC(=O)O)NC(=O)[C@@H](NC(=O)[C@@H](NC(=O)[C@H](CCCNC(=N)N)NC(=O)[C@H](CCC(=O)O)NC(=O)CNC(=O)[C@H](C)NC(=O)CC1CCN(C(=O)[C@H](CCCNC(=N)N)NC(=O)[C@H](CCCCN)NC(=O)[C@H](Cc2ccccc2)NC(=O)[C@H](CC(N)=O)NC(=O)[C@H](Cc2cnc[nH]2)NC(=O)[C@@H](NC(=O)[C@H](Cc2ccccc2)NC(=O)[C@@H](NC(=O)[C@H](C)NC(=O)[C@H](CCSC)NC(=O)[C@H](CCC(N)=O)NC(=O)[C@@H](NC(=O)[C@H](C)NC(=O)[C@@H](NC(=O)[C@H](CCCCN)NC(=O)[C@H](CC(C)C)NC(=O)[C@@H](N)Cc2cnc[nH]2)[C@@H](C)O)C(C)C)C(C)C)[C@@H](C)CC)CC1)[C@@H](C)CC)C(C)C)[C@@H](C)CC)[C@@H](C)CC)[C@@H](C)O)C(=O)N[C@@H](CCC(N)=O)C(N)=O` (H-HLKTAVQMAVFIHNFKR[X3]AGERIVDIIATDIQ-NH2), the inhibition result in assay [2] is “Active”. The same compound showed an IC50 in assay [3] of 0.57 µM.
